In ChEMBL document CHEMBL5291721, “A preclinical secondary pharmacology resource illuminates target-adverse drug reaction associations of marketed drugs” (Nat Commun, 2023):

Experiments:
Adenosine receptor A2a = Adenosine receptor A2a (Homo sapiens, UniProt P29274)
[1] = target: T1, Alpha-1A adrenergic receptor (Homo sapiens, UniProt P35348)
T1 sequence (P35348 whole entry): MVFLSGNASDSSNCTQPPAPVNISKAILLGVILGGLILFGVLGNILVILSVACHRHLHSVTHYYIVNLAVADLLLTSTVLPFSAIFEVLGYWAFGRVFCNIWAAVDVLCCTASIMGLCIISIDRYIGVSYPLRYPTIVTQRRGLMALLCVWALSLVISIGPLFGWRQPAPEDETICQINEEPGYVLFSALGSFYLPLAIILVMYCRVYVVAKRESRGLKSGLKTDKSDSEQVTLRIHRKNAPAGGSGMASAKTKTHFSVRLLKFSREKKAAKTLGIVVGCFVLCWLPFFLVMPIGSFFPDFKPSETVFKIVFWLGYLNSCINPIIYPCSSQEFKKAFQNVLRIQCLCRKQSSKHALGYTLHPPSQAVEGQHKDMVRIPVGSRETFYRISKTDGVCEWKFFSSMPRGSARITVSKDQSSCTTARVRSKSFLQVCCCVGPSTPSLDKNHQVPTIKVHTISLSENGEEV

B2 bradykinin receptor = target: T2, B2 bradykinin receptor (Homo sapiens, UniProt P30411)
T2 sequence (P30411 whole entry): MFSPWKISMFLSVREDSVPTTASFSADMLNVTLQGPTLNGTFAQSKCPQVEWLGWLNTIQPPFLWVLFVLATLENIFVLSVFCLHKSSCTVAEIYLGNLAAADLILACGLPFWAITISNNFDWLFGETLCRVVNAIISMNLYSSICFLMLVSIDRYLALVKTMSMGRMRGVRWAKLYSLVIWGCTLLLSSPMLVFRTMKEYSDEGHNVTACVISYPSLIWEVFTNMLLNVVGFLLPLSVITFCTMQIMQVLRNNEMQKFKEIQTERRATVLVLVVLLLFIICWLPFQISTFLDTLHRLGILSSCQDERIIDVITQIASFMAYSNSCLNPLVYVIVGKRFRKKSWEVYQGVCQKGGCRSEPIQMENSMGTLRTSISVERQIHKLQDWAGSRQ

[2] = target: Gamma-aminobutyric acid receptor subunit alpha-1 (Rattus norvegicus, UniProt P62813); format: functional
Chain of Gamma-aminobutyric acid receptor subunit alpha-1 (P62813 whole entry): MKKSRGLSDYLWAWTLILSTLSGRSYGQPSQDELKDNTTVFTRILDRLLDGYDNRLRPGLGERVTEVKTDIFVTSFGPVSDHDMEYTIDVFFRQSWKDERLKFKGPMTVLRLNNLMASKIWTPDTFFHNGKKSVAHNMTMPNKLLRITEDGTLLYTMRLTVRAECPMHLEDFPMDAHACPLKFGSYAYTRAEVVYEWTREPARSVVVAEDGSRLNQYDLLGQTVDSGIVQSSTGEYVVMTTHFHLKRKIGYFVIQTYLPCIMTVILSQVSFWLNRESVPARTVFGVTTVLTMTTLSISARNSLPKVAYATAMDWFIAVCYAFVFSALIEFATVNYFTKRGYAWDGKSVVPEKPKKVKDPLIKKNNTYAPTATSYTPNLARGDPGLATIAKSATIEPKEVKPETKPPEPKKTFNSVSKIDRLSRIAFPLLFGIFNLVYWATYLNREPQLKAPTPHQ

[3] = target: T3, 5-hydroxytryptamine receptor 1A (Homo sapiens, UniProt P08908); format: functional, cell-based
T3 sequence (P08908 whole entry): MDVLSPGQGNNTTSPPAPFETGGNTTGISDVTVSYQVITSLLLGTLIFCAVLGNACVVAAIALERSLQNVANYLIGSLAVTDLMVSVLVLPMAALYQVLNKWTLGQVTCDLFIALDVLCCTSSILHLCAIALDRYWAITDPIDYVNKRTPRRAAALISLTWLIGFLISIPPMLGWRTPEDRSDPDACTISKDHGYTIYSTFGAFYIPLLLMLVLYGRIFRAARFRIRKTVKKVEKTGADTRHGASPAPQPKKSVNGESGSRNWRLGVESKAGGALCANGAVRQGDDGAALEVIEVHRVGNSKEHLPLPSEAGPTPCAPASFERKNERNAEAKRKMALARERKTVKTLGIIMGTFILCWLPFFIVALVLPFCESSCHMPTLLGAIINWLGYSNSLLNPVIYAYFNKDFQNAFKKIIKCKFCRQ

[4] = target: 5-hydroxytryptamine receptor 2B (Homo sapiens, UniProt P41595); format: functional, cell-based
Chain of 5-hydroxytryptamine receptor 2B (P41595 whole entry): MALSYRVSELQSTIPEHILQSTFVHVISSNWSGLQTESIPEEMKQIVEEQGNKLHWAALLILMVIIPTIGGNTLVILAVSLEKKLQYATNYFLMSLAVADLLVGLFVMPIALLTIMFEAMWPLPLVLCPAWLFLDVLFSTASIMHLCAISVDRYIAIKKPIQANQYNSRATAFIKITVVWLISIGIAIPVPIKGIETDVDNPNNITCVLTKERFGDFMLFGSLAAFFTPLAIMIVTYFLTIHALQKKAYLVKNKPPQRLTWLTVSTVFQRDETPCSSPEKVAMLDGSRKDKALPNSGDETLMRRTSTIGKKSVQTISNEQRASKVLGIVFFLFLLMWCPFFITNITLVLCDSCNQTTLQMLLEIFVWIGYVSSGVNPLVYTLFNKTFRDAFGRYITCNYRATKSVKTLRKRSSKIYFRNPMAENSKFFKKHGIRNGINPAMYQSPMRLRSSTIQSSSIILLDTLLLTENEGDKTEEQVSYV

Thromboxane A2 receptor = target: T4, Thromboxane A2 receptor (Homo sapiens, UniProt P21731)
T4 sequence (P21731 whole entry): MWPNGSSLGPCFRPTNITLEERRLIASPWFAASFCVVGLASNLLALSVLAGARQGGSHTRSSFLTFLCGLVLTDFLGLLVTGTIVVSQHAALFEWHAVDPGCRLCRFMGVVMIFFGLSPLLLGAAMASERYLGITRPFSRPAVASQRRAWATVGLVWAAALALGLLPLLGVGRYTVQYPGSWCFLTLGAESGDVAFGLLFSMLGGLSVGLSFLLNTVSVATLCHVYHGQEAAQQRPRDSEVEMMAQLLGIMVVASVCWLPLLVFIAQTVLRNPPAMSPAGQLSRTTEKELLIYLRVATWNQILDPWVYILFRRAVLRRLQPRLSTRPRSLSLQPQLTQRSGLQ

[5] = target: T5, Gastrin/cholecystokinin type B receptor (Homo sapiens, UniProt P32239)
T5 sequence (P32239 whole entry): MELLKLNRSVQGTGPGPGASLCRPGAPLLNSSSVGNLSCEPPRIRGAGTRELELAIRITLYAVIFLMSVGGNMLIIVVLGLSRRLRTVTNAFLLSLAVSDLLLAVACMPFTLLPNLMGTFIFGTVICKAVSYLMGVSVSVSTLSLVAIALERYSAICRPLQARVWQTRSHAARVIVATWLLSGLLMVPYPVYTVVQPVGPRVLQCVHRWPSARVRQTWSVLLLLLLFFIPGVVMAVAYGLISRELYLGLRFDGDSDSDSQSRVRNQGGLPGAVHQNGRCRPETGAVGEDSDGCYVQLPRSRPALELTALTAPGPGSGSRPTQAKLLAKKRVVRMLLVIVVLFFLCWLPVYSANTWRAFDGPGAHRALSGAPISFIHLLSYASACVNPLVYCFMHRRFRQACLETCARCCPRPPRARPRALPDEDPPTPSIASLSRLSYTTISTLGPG

Cannabinoid receptor 1 = Cannabinoid receptor 1 (Homo sapiens, UniProt P21554); format: functional, cell-based
Chain of Cannabinoid receptor 1 (P21554 whole entry): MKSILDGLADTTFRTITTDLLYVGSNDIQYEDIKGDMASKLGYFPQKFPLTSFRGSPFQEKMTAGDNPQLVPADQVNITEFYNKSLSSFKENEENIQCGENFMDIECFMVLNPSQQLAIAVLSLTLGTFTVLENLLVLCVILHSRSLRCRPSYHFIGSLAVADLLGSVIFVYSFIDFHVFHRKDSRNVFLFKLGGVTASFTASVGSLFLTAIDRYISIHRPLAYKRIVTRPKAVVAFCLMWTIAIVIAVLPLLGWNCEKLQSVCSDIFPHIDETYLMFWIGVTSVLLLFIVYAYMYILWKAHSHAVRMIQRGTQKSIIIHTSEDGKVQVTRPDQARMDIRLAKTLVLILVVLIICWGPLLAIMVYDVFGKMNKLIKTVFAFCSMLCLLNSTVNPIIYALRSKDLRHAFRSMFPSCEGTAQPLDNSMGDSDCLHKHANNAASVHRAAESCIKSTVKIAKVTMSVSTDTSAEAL
Also: assay procedure not described here.

Chain of Adenosine receptor A2a (P29274 whole entry): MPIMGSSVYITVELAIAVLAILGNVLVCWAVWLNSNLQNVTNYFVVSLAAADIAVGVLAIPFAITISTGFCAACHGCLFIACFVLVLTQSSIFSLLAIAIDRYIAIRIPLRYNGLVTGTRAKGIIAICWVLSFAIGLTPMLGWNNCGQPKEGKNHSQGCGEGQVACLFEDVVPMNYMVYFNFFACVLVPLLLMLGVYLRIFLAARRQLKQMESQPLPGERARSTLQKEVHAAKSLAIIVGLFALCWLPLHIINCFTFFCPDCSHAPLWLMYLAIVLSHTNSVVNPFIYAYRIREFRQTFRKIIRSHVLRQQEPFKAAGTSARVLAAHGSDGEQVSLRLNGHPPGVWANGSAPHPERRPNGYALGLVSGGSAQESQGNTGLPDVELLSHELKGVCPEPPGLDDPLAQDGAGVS

SMILES | AC50 (Adenosine receptor A2a) [µM] | AC50 [1] [µM] | AC50 (B2 bradykinin receptor) [µM] | AC50 [2] [µM] | AC50 [3] [µM] | AC50 [4] [µM] | AC50 (Thromboxane A2 receptor) [µM] | AC50 [5] [µM] | AC50 (Cannabinoid receptor 1) [µM]
COc1ccc([C@@H]2CC(=O)c3c(O)cc(O)cc3O2)cc1O [HESPERETIN] | > 10 | > 30 | > 10 | > 10 | > 10 | > 10 | > 10 | – | –
CCOC(=O)C1=C(C)NC(C)=C(C(=O)OCC)C1c1ccccc1/C=C/C(=O)OC(C)(C)C [LACIDIPINE] | > 30 | – | > 30 | > 30 | > 30 | > 30 | > 30 | > 30 | > 30
COC(=O)C1=C(C)NC(C)=C(C(=O)OCCN2CCN(C(c3ccccc3)c3ccccc3)CC2)C1c1cccc([N+](=O)[O-])c1 (stereo unspecified) [MANIDIPINE 6300] | > 30 | – | > 30 | > 30 | > 30 | > 30 | > 30 | > 30 | 26
Cc1ccccc1N1C(=O)c2cc(S(N)(=O)=O)c(Cl)cc2NC1C (stereo unspecified) [METOLAZONE] | > 10 | > 10 | > 10 | > 10 | > 10 | > 10 | > 10 | – | –
O=C(O)c1cccnc1Nc1cccc(C(F)(F)F)c1 [NIFLUMIC ACID] | > 10 | > 10 | > 10 | > 10 | > 10 | > 10 | > 10 | – | –
CC(C)c1cccc(C(C)C)c1O [PROPOFOL] | > 30 | – | – | – | > 30 | > 30 | – | – | > 30
COC(=O)[C@H]1[C@H]2C[C@@H]3c4[nH]c5cc(OC)ccc5c4CCN3C[C@H]2C[C@@H](OC(=O)c2cc(OC)c(OC)c(OC)c2)[C@@H]1OC [RESERPINE] | > 30 | – | > 10 | > 10 | > 10 | > 10 | > 10 | – | –
O=S1(=O)CCN(CN2CCS(=O)(=O)NC2)CN1 [TAUROLIDINE] | > 30 | – | – | > 10 | > 30 | > 30 | > 30 | – | > 30

Further lines, results first:

AC50 (Adenosine receptor A2a) [µM] | AC50 [1] [µM] | AC50 (B2 bradykinin receptor) [µM] | AC50 [2] [µM] | AC50 [3] [µM] | AC50 [4] [µM] | AC50 (Thromboxane A2 receptor) [µM] | AC50 [5] [µM] | AC50 (Cannabinoid receptor 1) [µM] | SMILES
> 30 | – | > 30 | > 30 | > 30 | > 30 | > 30 | > 30 | – | O=C1c2cccc3c2[C@H](CCC3)CN1[C@@H]1CN2CCC1CC2 [PALONOSETRON]
3.4 | – | > 30 | > 30 | > 30 | > 30 | – | > 30 | > 30 | OC[C@H]1O[C@@H](n2cnc3c2NC=NC[C@H]3O)C[C@@H]1O [PENTOSTATIN]
> 30 | – | > 30 | > 30 | > 30 | > 30 | > 30 | > 30 | > 30 | Cc1cccc(C)c1NC(=O)CC12CCCN1CCC2 [PILSICAINIDE]
> 30 | – | > 30 | > 30 | > 30 | > 30 | > 30 | > 30 | > 30 | O=C1OC(OC(=O)c2cccnc2Nc2cccc(C(F)(F)F)c2)c2ccccc21 (stereo unspecified) [TALNIFLUMATE]
23 | – | > 30 | > 30 | > 30 | > 30 | > 30 | > 30 | > 30 | CCOC(=O)c1c(CSc2ccccc2)n(C)c2cc(Br)c(O)c(CN(C)C)c12 [UMIFENOVIR]
